Reference: patent publication US9018260B2, “Indanesulfamide derivatives” (Eisai R&D Management Co., Ltd., priority 2012, dated 2015)

Test system: corneal kindled male C57Bl/6 mice
Assay: Mouse corneal kindling model
Format: in vivo
Conditions: Racine's scale
Excerpt: Male C57Bl/6 mice were stimulated twice daily for 10 days. The electric-stimulations with current intensities of 4.0 mA and duration of 3 s (pulse frequency 50 Hz) were applied via corneally placed saline-soaked copper electrodes.
Seizure severity was ranked according to a modified scoring system of the Racine's scale (Clin. Neurophysiol. 1972:32:281-294): Score 1, mild facial clonus and eye blinking; 2, severe facial clonus, head nodding, chewing; 3, unilateral or alternating forelimb clonus; 4, bilateral forelimb clonus with rearing; 5, bilateral forelimb clonus with rearing and falling; 6, tonic fore- and/or hindlimb extension. The fully kindled animals with the severity score 4 or more were used for evaluation.
Test compounds were dissolved in the vehicle (0.45% methyl cellulose/4.5% cremophor/10% DMSO), then orally (p.o.) or intraperitoneally (i.p.) administered to mice. The vehicle was orally administered as controls.
Electric stimulation was applied at 1 hour after p.o. or 20 minutes after i.p administration. Stimulation parameters were the same as during the kindling process. After electric stimulation, seizure severity was recorded for 30 seconds according to the Racine's scale.
Four to ten animals were used for calculation of average seizure severity score at each dose.

[1] = dose 10 mg/kg, p.o., stimulation 1 hour after administration
[2] = dose 25 mg/kg, p.o., stimulation 1 hour after administration
[3] = dose 25 mg/kg, p.o., stimulation 1 hour after administration, 25 mg/kg
[4] = dose 50 mg/kg, p.o., stimulation 1 hour after administration
[5] = dose 10 mg/kg, p.o., stimulation 1 hour after administration, 10 mg/kg
[6] = dose 10 mg/kg, i.p., stimulation 20 minutes after administration
[7] = dose 25 mg/kg, i.p., stimulation 20 minutes after administration

SMILES | Seizure severity score (Average) [1] | Seizure severity score (Average) [2] | other results
Cc1cc(F)cc2c1C(NS(N)(=O)=O)CC2 (racemic) [Example 26, (±)-N-(5-fluoro-7-methyl-2,3-dihydro-1H-inden-1-yl)sulfamide] | 4.25 | 0 | –
Cc1cc(Cl)cc2c1C(NS(N)(=O)=O)CC2 (racemic) [Example 30, (±)-N-(5-chloro-7-methyl-2,3-dihydro-1H-inden-1-yl)sulfamide] | 4.25 | 0.25 | –
NS(=O)(=O)N[C@@H]1c2c(F)ccc(F)c2C[C@H]1F (relative stereo) [Example 15, N-[(1R*,2R*)-2,4,7-trifluoro-2,3-dihydro-1H-inden-1-yl]sulfamide] | 3 | 0 | –
NS(=O)(=O)N[C@@H]1c2c(Cl)ccc(F)c2C[C@H]1F (relative stereo) [Example 16a, (−)-N-[(1R*,2R*)-7-chloro-2,4-difluoro-2,3-dihydro-1H-inden-1-yl]sulfamide] | – | – | Seizure severity score (Average) [3]: 0
NS(=O)(=O)N[C@@H]1c2c(Cl)ccc(F)c2C[C@H]1F (relative stereo) [Example 16b, (+)-N-[(1R*,2R*)-7-chloro-2,4-difluoro-2,3-dihydro-1H-inden-1-yl]sulfamide] | 3.75 | – | Seizure severity score (Average) [3]: 0.5
NS(=O)(=O)N[C@@H]1c2c(Cl)cc(F)cc2C[C@H]1F (relative stereo) [Example 17, (−)-N-[(1R*,2R*)-7-chloro-2,5-difluoro-2,3-dihydro-1H-inden-1-yl]sulfamide] | 2 | 0 | Seizure severity score (Average) [4]: 0
CO[C@@H]1Cc2c(Cl)ccc(F)c2[C@H]1NS(N)(=O)=O (relative stereo) [Example 18, (+)-N-[(1R*,2R*)-4-chloro-7-fluoro-2-methoxy-2,3-dihydro-1H-inden-1-yl]sulfamide] | 2 | 0 | –
Cc1cc(C#N)cc2c1C(NS(N)(=O)=O)C(F)(F)C2 (single isomer, unassigned) [Example 4, N-[(1S*)-5-cyano-2,2-difluoro-7-methyl-2,3-dihydro-1H-inden-1-yl]sulfamide] | – | 0 | Seizure severity score (Average) [4]: 0
Cc1ccc(F)c2c1C(NS(N)(=O)=O)C(F)(F)C2 (single isomer, unassigned) [Example 13, N-[(1S*)-2,2,4-trifluoro-7-methyl-2,3-dihydro-1H-inden-1-yl]sulfamide] | 0 | – | –
NS(=O)(=O)NC1c2c(cccc2C(F)F)CC1(F)F (single isomer, unassigned) [Example 14, N-[(1S*)-7-(difluoromethyl)-2,2-difluoro-2,3-dihydro-1H-inden-1-yl]sulfamide] | – | 0 | –
N#Cc1cc(Cl)c2c(c1)CC[C@H]2NS(N)(=O)=O (single isomer, unassigned) [Example 22b, (−)-N-(7-chloro-5-cyano-2,3-dihydro-1H-inden-1-yl)sulfamide] | 3 | – | Seizure severity score (Average) [3]: 0
NS(=O)(=O)N[C@H]1CCc2cccc(Cl)c21 (single isomer, unassigned) [Example 24, (+)-N-(7-chloro-2,3-dihydro-1H-inden-1-yl)sulfamide] | 3 | 0 | –
Cc1cc(C#N)cc2c1C(NS(N)(=O)=O)CC2 (single isomer, unassigned) [Example 25a, (+)-N-(5-cyano-7-methyl-2,3-dihydro-1H-inden-1-yl)sulfamide] | – | 0 | Seizure severity score (Average) [5]: 1.75
Cc1ccc(F)c2c1[C@@H](NS(N)(=O)=O)CC2 (single isomer, unassigned) [Example 28a, (+)-N-(4-fluoro-7-methyl-2,3-dihydro-1H-inden-1-yl)sulfamide] | – | 0 | Seizure severity score (Average) [5]: 4
NS(=O)(=O)NC1c2c(F)c(F)cc(F)c2CC1(F)F (single isomer, unassigned; (+)) [Example 3, (+)-N-(2,2,4,6,7-pentafluoro-2,3-dihydro-1H-inden-1-yl)sulfamide] | 1.5 | 0 | –
NS(=O)(=O)NC1c2c(F)cc(Cl)cc2CC1(F)F (single isomer, unassigned; (+)) [Example 10, (+)-N-(5-chloro-2,2,7-trifluoro-2,3-dihydro-1H-inden-1-yl)sulfamide] | 0 | 0 | –
NS(=O)(=O)NC1CCc2c(F)ccc(Cl)c21 (single isomer, unassigned; (+)) [Example 20, (+)-N-(7-chloro-4-fluoro-2,3-dihydro-1H-inden-1-yl)sulfamide] | – | – | Seizure severity score (Average) [6]: 3.25; Seizure severity score (Average) [7]: 0
Cc1cccc2c1C(NS(N)(=O)=O)CC2 (single isomer, unassigned; (+)) [Example 27, (+)-N-(7-methyl-2,3-dihydro-1H-inden-1-yl)sulfamide] | 3 | 0 | –
NS(=O)(=O)NC1c2c(Cl)ccc(F)c2CC1(F)F (single isomer, unassigned; (-)) [Example 7, (−)-N-(7-chloro-2,2,4-trifluoro-2,3-dihydro-1H-inden-1-yl)sulfamide] | – | – | Seizure severity score (Average) [6]: 3.5; Seizure severity score (Average) [7]: 0.25
NS(=O)(=O)NC1c2c(ccc(F)c2Cl)CC1(F)F (single isomer, unassigned; (-)) [Example 9, (−)-N-(7-chloro-2,2,6-trifluoro-2,3-dihydro-1H-inden-1-yl)sulfamide] | – | 0 | Seizure severity score (Average) [4]: 0
NS(=O)(=O)NC1CCc2cc(Cl)cc(F)c21 (single isomer, unassigned; (-)) [Example 23, (−)-N-(5-chloro-7-fluoro-2,3-dihydro-1H-inden-1-yl)sulfamide] | 4.25 | 0 | –
NS(=O)(=O)NC1CCc2c(Cl)ccc(F)c21 (single isomer, unassigned; (-)) [Example 31, (−)-N-(4-chloro-7-fluoro-2,3-dihydro-1H-inden-1-yl)sulfamide] | 1.5 | 0 | –
N#Cc1cc(Cl)c2c(c1)CC[C@H]2NS(N)(=O)=O [Example 22a, (+)-N-(7-chloro-5-cyano-2,3-dihydro-1H-inden-1-yl)sulfamide] | 3 | – | Seizure severity score (Average) [3]: 0.25
Cc1cc(C#N)cc2c1[C@@H](NS(N)(=O)=O)CC2 [Example 25b, (−)-N-(5-cyano-7-methyl-2,3-dihydro-1H-inden-1-yl)sulfamide] | – | 0 | Seizure severity score (Average) [5]: 1
Cc1ccc(F)c2c1[C@@H](NS(N)(=O)=O)CC2 [Example 28b, (−)-N-(4-fluoro-7-methyl-2,3-dihydro-1H-inden-1-yl)sulfamide] | – | 0 | Seizure severity score (Average) [5]: 3.75
